Source: the supplement of paper PMC8882468
Values joined by “and” are separate entries in the source; they are usually repeats but may differ in a detail not shown here. Equal values may be shown once.

How the values were obtained:
Test in all cases: CTG-3D luminescence at 96 h relative to day-0 seeding control (ratio to day 0); higher = more growth / less cytotoxicity; PDxO 3D drug screen (set 2), 96 h, CTG-3D normalised to day-0 seeding control.
MDA-MB-231 = system: MDA-MB-231
HCI-024 = system: HCI-024 (organoid from a breast cancer xenograft)
HCI-003.E2 = system: HCI-003.E2 (organoid from an ER-positive breast cancer xenograft)
HCI-016 = system: HCI-016 (organoid from a triple-negative breast cancer xenograft)
HCI-023 = system: HCI-023 (organoid from a triple-negative breast cancer xenograft)
HCI-012 = system: HCI-012 (organoid from a breast cancer xenograft)

CC(=O)O[C@@]12CO[C@@H]1C[C@H](O)[C@@]1(C)C(=O)[C@H](O)C3=C(C)[C@@H](OC(=O)[C@H](O)[C@@H](NC(=O)OC(C)(C)C)c4ccccc4)C[C@@](O)([C@@H](OC(=O)c4ccccc4)[C@H]21)C3(C)C [docetaxel]
CTG-3D luminescence at 96 h
Conditions | 12.5 pM | 0.00025 µM | 0.005 µM | 0.1 µM | 1 µM | 10 µM | 100 µM | 625 fM
HCI-003.E2 | 0.748 | 0.702 | 0.684 | 0.627 | 0.599 | 0.261 | 0.0093 | 0.993
MDA-MB-231 | 4.86 and 2.64 | 3.88 and 2.58 | 3.24 and 2.69 | 2.84 and 2.47 | 3.11 and 2.65 | 3.34 and 2.92 | 1.24 and 1.2 | 4.81 and 2.82

CTG-3D luminescence at 96 h
Conditions | 12.5 pM | 0.00025 µM | 0.005 µM | 0.1 µM | 1 µM | 10 µM | 100 µM | 625 fM
HCI-012, days in culture: 214 | 1.03 | 0.8 | 0.461 | 0.578 | 0.404 | 0.777 | 0.105 | 0.817
HCI-012, days in culture: 243 | 1.3 | 1.44 | 0.758 | 0.52 | 0.65 | 0.926 | 0.441 | 1.69
HCI-012, days in culture: 256 | 2.14 | 2.22 | 1.58 | 0.695 | 0.649 | 0.506 | 0.405 | 2.16
HCI-012, days in culture: 284 | 2.14 | 3.21 | 1.16 | 0.569 | 0.537 | 0.49 | 0.0331 | 4.21
HCI-016, days in culture: 305 | 1.51 | 1.9 | 1.03 | 1.42 | 0.985 | 0.955 | 0.0636 | 1.77
HCI-016, days in culture: 327 | 0.628 | 0.252 | 0.393 | 0.838 | 0.432 | 0.497 | 0.0762 | 0.906
HCI-016, days in culture: 341 | 1.18 | 1.18 | 0.786 | 0.962 | 0.862 | 0.954 | 0.11 | 1.59
HCI-016, days in culture: 397 | 1.74 | 1.18 | 0.667 | 0.792 | 0.484 | 0.997 | 0.19 | 2.27
HCI-023, days in culture: 223 | 0.666 | 0.731 | 0.679 | 0.597 | 0.578 | 0.746 | 0.0587 | 0.745
HCI-023, days in culture: 238 | 0.654 | 0.598 | 0.69 | 0.7 | 0.901 | 0.651 | 0.265 | 0.619
HCI-023, days in culture: 252 | 1.03 | 0.858 | 0.757 | 1.04 | 0.812 | 1.27 | 0.603 | 1.14
HCI-024, days in culture: 202 | 0.822 | 0.868 | 0.82 | 1.17 | 0.844 | 1.08 | 0.0987 | 0.654
HCI-024, days in culture: 231 | 0.86 | 0.987 | 0.75 | 0.873 | 1.08 | 1.06 | 0.0745 | 1.06
HCI-024, days in culture: 254 | 0.926 | 1.02 | 1.14 | 1.11 | 1.87 | 0.726 | 0.241 | 1.59

CC(C)n1nc(-c2ccc3oc(N)nc3c2)c2c(N)ncnc21 [sapanisertib]
CTG-3D luminescence at 96 h
Conditions | 12.5 pM | 0.00025 µM | 0.005 µM | 0.1 µM | 1 µM | 10 µM | 100 µM | 625 fM
HCI-003.E2 | 2.44 | 2.37 | 2.1 | 0.144 | 0.0411 | 0.0196 | 0.00904 | 2.87
MDA-MB-231 | 5.39 | 5.2 | 4.98 | – | 2.67 | 1.74 | 0.758 | 5.28

CTG-3D luminescence at 96 h
Conditions | 12.5 pM | 0.00025 µM | 0.005 µM | 0.1 µM | 1 µM | 10 µM | 100 µM | 625 fM
HCI-012, days in culture: 214 | 3 | 1.84 | 1.05 | 1.27 | 0.635 | 0.331 | 0.0967 | 2.11
HCI-012, days in culture: 243 | 1.95 | 2.36 | 1.77 | 1.16 | 0.476 | 0.522 | 0.156 | 3.05
HCI-012, days in culture: 256 | 2.05 | 2.28 | 2.44 | 1.31 | 0.395 | 0.305 | 0.171 | 2.12
HCI-012, days in culture: 284 | 1.65 | 2.83 | 1.59 | 1.13 | 0.451 | 0.248 | 0.147 | 3.7
HCI-016, days in culture: 305 | 2.57 | 3.24 | 2.48 | 1.62 | 0.527 | 0.566 | 0.455 | 3.26
HCI-016, days in culture: 327 | 1.38 | 1.23 | 1.37 | 0.784 | 0.464 | 0.679 | 0.258 | 1.7
HCI-016, days in culture: 341 | 2.37 | 1.72 | 2.04 | 1.14 | 0.566 | 0.673 | 0.378 | 2.96
HCI-016, days in culture: 397 | 1.83 | 2.36 | 1.47 | 1.2 | 0.701 | 0.688 | 0.324 | 2.37
HCI-023, days in culture: 223 | 1.99 | 3.08 | 1.41 | 0.945 | 0.479 | 0.703 | 0.169 | 2.08
HCI-023, days in culture: 238 | 1.38 | 1.49 | 1.44 | 0.777 | 0.723 | 0.606 | 0.2 | 1.64
HCI-023, days in culture: 252 | 2.43 | 1.86 | 1.79 | 1.19 | 0.654 | 0.535 | 0.388 | 1.93
HCI-024, days in culture: 202 | 1.13 | 0.881 | 0.616 | 0.616 | 0.515 | 0.634 | 0.155 | 1.14
HCI-024, days in culture: 231 | 1.11 | 1.3 | 1.01 | 0.69 | 0.589 | 0.241 | 0.0656 | 0.868
HCI-024, days in culture: 254 | 2.43 | 1.09 | 1.25 | 1.1 | 0.518 | 0.541 | 0.118 | 1.6
